Values of other authors, collected in PMC11289879 (RSC Chemical Biology, 2024).

What was measured:
acute heart failure = settings: clinical trial (Novartis; second phase III)

Substance	effect on the treatment of acute heart failure (acute heart failure)	solubility in an acidic solvent
Human relaxin-2 [H2 relaxin]	no significant effect	–
DSWMEEVIKLCGRELVRAQIAICGMSTWS [B-chain]	–	poorly soluble
